In article PMC5902437, “Structural studies on radiopharmaceutical DOTA-minigastrin analogue (CP04) complexes and their interaction with CCK2 receptor” (EJNMMI Research, 2018):

Key:
[1] = system: CCK-2R; conditions: literature SAR of CCK/gastrin derivatives; cited from earlier work
Text: Table 3 SAR data from CCK/gastrin derivatives and their correspondence to our model | column: SAR data from CCK/gastrin derivatives

[2] = target: T1, human CCK-2R (Homo sapiens, UniProt P32239); assay: Competition binding assay with [^90Y]Y-CP04 as competitive radioligand in A431-CCK2R(+) cells; conditions: 0.5 mln per well, radioligand [^90Y]Y-CP04 0.24 pmol per well, 1 h at 37 °C, competitor 10^-6–10^-13 M, cell-associated radioactivity by gamma counter, mean ± SD, n = 3 experiments in triplicate, read-out: apparent 50% inhibitory concentration (IC50) for hCCK-2R
T1 construct: expressed in transfected cells; host or cells: A431 human epidermoid carcinoma cells, stably transfected (gift of Prof. Luigi Aloj)
T1 sequence (P32239 1-447): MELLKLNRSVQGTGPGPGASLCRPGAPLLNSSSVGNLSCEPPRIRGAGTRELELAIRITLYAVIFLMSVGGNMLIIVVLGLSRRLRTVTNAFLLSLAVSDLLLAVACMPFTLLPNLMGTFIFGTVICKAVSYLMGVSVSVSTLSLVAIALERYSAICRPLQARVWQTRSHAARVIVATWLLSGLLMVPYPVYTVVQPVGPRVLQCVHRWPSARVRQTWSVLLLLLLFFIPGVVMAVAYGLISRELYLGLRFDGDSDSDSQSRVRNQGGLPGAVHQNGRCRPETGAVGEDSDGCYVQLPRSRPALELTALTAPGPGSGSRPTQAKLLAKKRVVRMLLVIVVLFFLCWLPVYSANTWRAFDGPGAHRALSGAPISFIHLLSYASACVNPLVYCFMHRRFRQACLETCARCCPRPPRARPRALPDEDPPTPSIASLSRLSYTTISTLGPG
Description: The A431 human epidermoid carcinoma cell line stably transfected with the human CCK2R (A431-CCK2R(+)) and mock transfected with an empty vector alone (A431-CCK2R(−)) were kindly provided by Prof. Luigi Aloj.
The cells were cultured in Dulbecco’s modified Eagle’s medium (DMEM) supplemented with 10% of heat-inactivated fetal bovine serum and antibiotics (penicillin 100 U/mL and streptomycin 100 μg/mL) and cultivated at 37 °C in 5% CO2.
The binding affinity (the apparent 50% inhibitory concentration (IC50)) of [^natGa]Ga-CP04 and [^natLu]Lu-CP04 complexes for CCK2 receptor was determined in A431-CCK2R(+) cell line using [^90Y]Y-CP04 as a competitive radioligand according to the method used by Roosenburg et al.. [^90Y]Y-CP04 was obtained with a molar activity of 2.05 GBq/μmol calculated at the time of experiment and 98% radiochemical purity as determined by radio HPLC method. Human epidermoid carcinoma (A431-CCK2(+)) cells were subcultured overnight in 12-well plates in concentration of 0.5 mln per well. Before the experiments, the cells were washed with DMEM medium and then [^90Y]Y-labeled CP04 (2.05 GBq/μmol) was added to the cells in amount of 0.24 pmol per well (ca. 80,000 cpm) and incubated for 1 h at 37 °C with increasing concentrations (10^−6–10^−13 M) of the Ga and Lu complexes of CP04 peptide. […]

## H-Trp-Met-Asp-Phe-NH2 [CCK-4, C-terminal tetrapeptide of CCK]
[1]
  binding to the receptor (SAR data in words): 1. C-terminal sequence in cholecystokinins and gastrins is a condition necessary and sufficient for high affinity towards the receptor 2. Even a fragment as small as a tetrapeptide H-Trp-Met-Asp-Phe-NH2 (CCK-4) exhibits relatively good binding

## CSCC[C@H](NC(=O)[C@H](Cc1c[nH]c2ccccc12)NC(=O)CNC(=O)[C@H](Cc1ccc(O)cc1)NC(=O)[C@H](C)NC(=O)[C@@H](CCC(=O)O)NC(=O)[C@@H](CCC(=O)O)NC(=O)[C@@H](CCC(=O)O)NC(=O)[C@@H](CCC(=O)O)NC(=O)[C@@H](CCC(=O)O)NC(=O)[C@@H](CCC(=O)O)NC(=O)CN1CCN(CC(=O)O)CCN(CC(=O)O)CCN(CC(=O)O)CC1)C(=O)N[C@@H](CC(=O)O)C(=O)N[C@@H](Cc1ccccc1)C(N)=O [[^natLu]Lu-CP04, metal not drawn]
[2]
  IC50: 1.02 ± 0.28 nM

## CSCC[C@H](NC(=O)[C@H](Cc1c[nH]c2ccccc12)NC(=O)CNC(=O)[C@H](Cc1ccc(O)cc1)NC(=O)[C@H](C)NC(=O)[C@@H](CCC(=O)O)NC(=O)[C@@H](CCC(=O)O)NC(=O)[C@@H](CCC(=O)O)NC(=O)[C@@H](CCC(=O)O)NC(=O)[C@@H](CCC(=O)O)NC(=O)[C@@H](CCC(=O)O)NC(=O)CN1CCN(CC(=O)O)CCN(CC(=O)O)CCN(CC(=O)O)CC1)C(=O)N[C@@H](CC(=O)O)C(=O)N[C@@H](Cc1ccccc1)C(N)=O [[^natGa]Ga-CP04, metal not drawn]
[2]
  IC50: 1.15 ± 0.39 nM
